Experimental data as given in publication PMC7076013 (Scientific Reports, 2020).

How the values were obtained:
Assay type in all cases: cell-based, human
A375 cells [1] = assay: Ann/PI double staining apoptosis, A375
Protocol: The results were ex pressed as a p er centage of a v alue obtained for the untr eated control cells that was arbitrarily set to be 100%. A non- linear regression analysis of obtained results was done b y using Gr aphPad Prism software to calculat e IC50 values.
3.3. AnnexinV-FITC/P I and caspase det ection. […]
C ells were anal yz ed b y
C yFlow® Space Part ec u sing the PartecFloM ax ® software.
3.4. Cell staining with CFSE.
(§1) To quantify cell division rate, cells were incubated for 10 min at 37 °C in the presence of […]
subsequentl y quantified using flow c ytomet r y.
Cell motilit y and proliferation was anal yz ed using wound healing assa y. A375 and 518A2 cells were cultivated in 6-well plates until 80% of confluence in monola yers w as reached. Th e scratch was made using a steri le pipette tip which was drawn across the center of the wells. The scratch ed cell la yers w ere wash ed twice with fres h PBS to remove loose or damaged cells. Cells […]
4% paraformald eh yde (PFA) for 10 min at room temperature . The wounds were digitally photographed using a Ni kon inverted microscope TS2 with 5 MPIX cam era.
3.6. Measurement of intracellular nitric oxide

518A2 cells [2] = assay: Ann/PI apoptosis and caspase activation, 518A2; settings: 518A2, 48 h
518A2 cells [3] = assay: Scratch (wound healing) test, 518A2; settings: 518A2, IC50 dose, 48 h
Protocol: (§2) It was observed that the wound in the control of the A375 cells decreased from 172 ± 69 μm to 127 ± 13 μm, compared to the treated cells where it stayed at 177 ± 32 μm. […] (Fig. 10A).To confirm this, the cell proliferation rate was determined after 72 h of incubation in the presence of 5 of the carboxyfluorescein succinimidyl ester (CFSE)-stained cells. […] These findings were further confirmed by fluorescence microscopy of 4′,6-diamidino-2-phenylindole (DAPI)-stained cells (Fig. 10C), for which predominantly large nuclei with scarce nucleoli characteristic for interphase were observed on treatment of A375 cells with 5[60]. In addition, sporadic oblong nuclei with condensed chromatin, typical for apoptosis, were also observed (25 ± 9%). On the other hand in the DAPI-stained 518A2 cells typical apoptotic shrunken nuclei and apoptotic bodies were dominant (60 ± 2%)[61]. The different modes of action on the two melanoma cell lines indicate that cell specific characteristics define the outcome of the treatment with 5. […] Recent data on the compensatory proliferation in response to induced apoptotic cell death in the tumor tissue even favor a nonaggressive approach in the therapy of advanced malignancy. […]
as §1
(§3) subsequentl y quantified using flow c ytomet r y. […]

A375 cells [4] = assay: CFSE cell proliferation, A375; settings: A375, 72 h
Protocol: as §2, §1, §3

A375 cells [5] = assay: Fluorescence microscopy of DAPI-stained cells, A375; settings: A375, 72 h
Protocol: It was observed that the wound in the control of the A375 cells decreased from 172 ± 69 μm to 127 ± 13 μm, compared to the treated cells where it stayed at 177 ± 32 μm. […] (Fig. 10A).To confirm this, the cell proliferation rate was determined after 72 h of incubation in the presence of 5 of the carboxyfluorescein succinimidyl ester (CFSE)-stained cells. […] These findings were further confirmed by fluorescence microscopy of 4′,6-diamidino-2-phenylindole (DAPI)-stained cells (Fig. 10C), for which predominantly large nuclei with scarce nucleoli characteristic for interphase were observed on treatment of A375 cells with 5[60]. In addition, sporadic oblong nuclei with condensed chromatin, typical for apoptosis, were also observed (25 ± 9%). On the other hand in the DAPI-stained 518A2 cells typical apoptotic shrunken nuclei and apoptotic bodies were dominant (60 ± 2%)[61]. The different modes of action on the two melanoma cell lines indicate that cell specific characteristics define the outcome of the treatment with 5. […] Recent data on the compensatory proliferation in response to induced apoptotic cell death in the tumor tissue even favor a nonaggressive approach in the therapy of advanced malignancy.

518A2 cells [6] = assay: Intracellular NO (DAF), 518A2; settings: 518A2, 48 h; untreated 44.9 ± 5.9
Protocol: (§4) Given that analogue 5 is designed for NO release, the intracellular release of nitric oxide and production of reactive oxygen species (ROS)/reactive nitrogen species (RNS) was measured by means of redox-sensitive dyes — 4-amino-5-methylamino-2′,7′-difluorofluorescein diacetate (DAF) and dihydrorhodamine-123 (DHR) — after exposure for 48 h (Fig. 11). […] It is well documented that highly intensified production of ROS/RNS is connected with extreme cell damage and consequent cell death, whereas moderate ROS production is involved in the regulation of intracellular processes often involved in cell cycle arrest, proliferation, and differentiation[63],[64]. Apart from the moderate intracellular NO release, it was important to evaluate whether 5 released NO extracellularly. The production of NO from a nitrate group is a three-electron reduction process that can happen by a number of possible 2e^– and 1e^– pathways, commonly involving the initial liberation of a nitrite. A common method of detecting the release of NO in the extracellular compartment is the detection of nitrite ions by the Griess reaction, which quantifies the nitrite resulting from the oxidation of NO[66],[67]. […] Introduction of a nitrate moiety was also found to be beneficial in the case of rofecoxib. […]

A375 cells [7] = assay: Intracellular ROS/RNS (DHR), A375; settings: A375, 48 h; untreated 22.3 ± 5
Protocol: as §4

With “4-[4-(methylnitrooxy)phenyl]-3-(1,2-dicarba-closo-dodecaboranyl)furan-2(5 H)-one [Compound 5]” the “apoptosis (Ann/PI)” value (A375 cells [1]; A375, 48 h) was “did not promote significant apoptosis”, the “apoptosis after prolonged incubation” value (A375 cells [1]; A375, 72 h total) was “not accompanied by the appearance of apoptotic cells” and the “apoptosis (Ann/PI, caspase)” value (518A2 cells [2]) was “strong caspase-dependent apoptosis”. The “wound in scratch test” value (518A2 cells [3]) was “impossible to distinguish the edges of the wound”, the “elevation of % of undivided cells (CFSE) vs control” value (A375 cells [4]) was 38 ± 8% and the “oblong nuclei with condensed chromatin, typical for apoptosis (DAPI)” value (A375 cells [5]) was 25 ± 9%. The “intracellular NO, mean fluorescence (DAF)” value (518A2 cells [6]) was 97.7 ± 1.2 and the “ROS/RNS production, mean fluorescence (DHR)” value (A375 cells [7]) was 32.67 ± 8.
